Publication PMC1977926, “Human pancreatic cancer cell lines do not express receptors for somatostatin” (British Journal of Cancer, 1992)
Bridge positions count the residues as written; N and C are the ends. Square brackets hold non-standard residues; d marks the D form. Peptide text beside a SMILES is read from it. Tyr(3-I) = N[C@@H](Cc1ccc(O)c(I)c1)C(=O)O

Key:
[1] = target: T1, somatostatin receptors (AR42J membranes) (Rattus norvegicus, UniProt P30680); assay: Displacement binding, 125I-SS, AR42J membranes; conditions: 125I-SS 0.5 nM, 1 h at 30 C
T1 construct: endogenous in cells; host or cells: AR42J rat pancreatic acinar tumour cell line (membrane preparation)
Description: (§1) Br. J. Cancer (1992), 66, 483 487 ? […] Somatostatin (SS) is a tetradecapeptide widely distributed throughout the body, being found in high concentrations in the brain, stomach, intestine and pancreas (Reichlin, 1983). Somatostatin exerts inhibitory actions on the cellular func- tions within a variety of tissues including secretion and growth (Konturek et al., 1988; Meyers & Coy, 1980; Schally, 1988). […] It has therefore been proposed that somatostatin may be capable of inhibiting pancreatic tumour growth indirectly via the suppression of secretion of pancreatic trophic hor- mones and/or by direct effects on the tumour itself (Schally et al., 1988; Liebow et al., 1989). […] For somatostatin to impair directly the growth of pancreatic cancer the cells should therefore express receptors for the peptide. The aim of these study was to determine the somatostatin receptor status of two human (MiaPaCa-2 & Panc-1) and a rat (AR42J) pancreatic cancer cell lines. […] DNA synthesis was assessed for the final 6 h by adding 0.5 liCi 3H-thymi- dine/well. […] Scin- tillation fluid was added to individual filter discs and the cell associated radioactivity counted in a beta counter (Packard 1900CA Tricarb). […] The protein content of the suspension was determined using a bicinchoninic acid kit (Pierce, Rockford, USA).

[2] = tested on: somatostatin receptors (Panc-1 membranes); assay: Displacement binding, 125I-SS, Panc-1 membranes; parameters: species or system human; conditions: 125I-SS 0.5 nM, unlabelled RC-160 10-6 to 10-11 M, 1 h at 30 C
Description: as §1

[3] = tested on: somatostatin receptors (MiaPaCa-2 membranes); assay: Displacement binding, 125I-SS, MiaPaCa-2 membranes; parameters: species or system human; conditions: 125I-SS 0.5 nM, unlabelled RC-160 10-6 to 10-11 M, 1 h at 30 C
Description: as §1

[4] = target: T1, somatostatin receptors (AR42J membranes); assay: Saturation binding, 125I-SS, AR42J membranes; conditions: 125I-SS 0.05-1 nM, 2 h at 30 C, single class of high affinity binding sites (abstract)
Description: as §1

[5] = tested on: MiaPaCa-2 human ductal pancreatic carcinoma cell line; assay: Proliferation of MiaPaCa-2 (3H-thymidine incorporation); assay type: cell-based; conditions: three experiments, five determinations; for Stimulation of growth of MiaPaCa-2: serum free medium, 3H-thymidine incorporation, P<0.01 compared to untreated cells
Description: (§2) Br. J. Cancer (1992), 66, 483 487 ? […] Somatostatin (SS) is a tetradecapeptide widely distributed throughout the body, being found in high concentrations in the brain, stomach, intestine and pancreas (Reichlin, 1983). Somatostatin exerts inhibitory actions on the cellular func- tions within a variety of tissues including secretion and growth (Konturek et al., 1988; Meyers & Coy, 1980; Schally, 1988). […] It has therefore been proposed that somatostatin may be capable of inhibiting pancreatic tumour growth indirectly via the suppression of secretion of pancreatic trophic hor- mones and/or by direct effects on the tumour itself (Schally et al., 1988; Liebow et al., 1989). […] For somatostatin to impair directly the growth of pancreatic cancer the cells should therefore express receptors for the peptide. The aim of these study was to determine the somatostatin receptor status of two human (MiaPaCa-2 & Panc-1) and a rat (AR42J) pancreatic cancer cell lines. We have also studied the effects of somatostatin-14 and RC-160 on the proliferation of these three cell lines. Materials and methods Cell growth MiaPaCa-2 and Panc-1 are both human ductal pancreatic carcinoma cell lines and were obtained from the European Cell Culture Collection. AR42J is a rat pancreatic acinar tumour cell line and was kindly provided by Dr S. Watson (Cancer Research Campaign Laboratories, Nottingham Uni- versity). MiaPaCa-2 and Panc-l were routinely grown in Dulbecco's Modified Eagle's Medium (DMEM) containing 10% foetal calf serum (ICN Flow, Irvine). AR42J cells were grown in RPMI 1640 containing 10% FCS (ICN Flow, Irvine). The cells were trypsinised and plated out in 96 well plates at 5 x I04 cells ml-' in serum-free (SF) medium for 24 h. After this period of serum starvation the medium was supple- mented with EGF (Sigma, Dorset) or IGF-I (Peninsula, St Helens) with or without SS-14 (Sigma, Dorset) or RC-160 (Peninsula, St Helens). EGF, IGF-1, SS-14 and RC-160 were added at concentrations described in the Results section. The cells were then incubated for 48 h at 37?C. DNA synthesis was assessed for the final 6 h by adding 0.5 liCi 3H-thymi- dine/well. The cells were then collected onto filter mats using a semi-automatic cell harvester (Inotech, Switzerland). Scin- tillation fluid was added to individual filter discs and the cell associated radioactivity counted in a beta counter (Packard 1900CA Tricarb). Binding studies Binding of ['25I-tyr"]Somatostatin (Amersham International) was performed on membranes prepared from the three cell lines. Cells were washed twice with phosphate buffered saline (pH 7.4), then removed from 150 cm2 flasks using a cell scraper. […] The protein content of the suspension was determined using a bicinchoninic acid kit (Pierce, Rockford, USA).

[6] = tested on: Panc-1 human ductal pancreatic carcinoma cell line; assay: Proliferation of Panc-1 (3H-thymidine incorporation); assay type: cell-based; conditions: 48 h, three experiments, five determinations; for Stimulation of growth of Panc-1: serum free medium, 3H-thymidine incorporation, P<0.01 compared to untreated cells
Description: as §2

MiaPaCa-2 = conditions: cited from earlier work
Description: (§3) Br. J. Cancer (1992), 66, 483 487 ? […] Summary The in vivo administration of somatostatin (SS) or its analogues is capable of suppressing the growth of pancreatic cancer in experimental animals. We examined the effects of SS-14 and its analogue RC-160 on the in vitro growth of ...

[7] = tested on: somatostatin receptors in human pancreatic adenocarcinomas; conditions: 12 fresh adenocarcinomas; ref Reubi et al. (1988); cited from earlier work
Description: as §3

[8] = tested on: somatostatin receptors on MiaPaCa-2; conditions: no Kd quoted, no total or non-specific binding curves; ref Hierowski et al. (1985); cited from earlier work
Description: as §3

[9] = tested on: rat experimental pancreatic cancer; conditions: ref Redding et al. (1984); cited from earlier work
Description: as §3

[10] = tested on: pancreatic exocrine secretion of protein and bicarbonate; conditions: ref Boden et al., 1975; cited from earlier work
Description: as §3

[11] = tested on: hamster experimental pancreatic cancer; conditions: ref Redding et al. (1984); cited from earlier work
Description: as §3

[12] = tested on: endocrine secretion of cholecystokinin, gastrin and secretin; conditions: ref Schally et al., 1978; cited from earlier work
Description: as §3

[13] = tested on: somatostatin binding sites in human pancreatic cancer xenograft; conditions: ref Singh and colleagues (1991); cited from earlier work
Description: as §3

EGF receptor = conditions: ref Hierowski et al., 1985; cited from earlier work
Description: as §3

[14] = tested on: tyrosine phosphatase activity; conditions: in vitro, MiaPaCa-2; ref Liebow et al., 1989; cited from earlier work
Description: as §3

Panc-1 = conditions: unstimulated cells, serum-free medium, one concentration; ref Liehr et al., 1990; cited from earlier work
Description: as §3

T1 sequence (P30680 whole entry): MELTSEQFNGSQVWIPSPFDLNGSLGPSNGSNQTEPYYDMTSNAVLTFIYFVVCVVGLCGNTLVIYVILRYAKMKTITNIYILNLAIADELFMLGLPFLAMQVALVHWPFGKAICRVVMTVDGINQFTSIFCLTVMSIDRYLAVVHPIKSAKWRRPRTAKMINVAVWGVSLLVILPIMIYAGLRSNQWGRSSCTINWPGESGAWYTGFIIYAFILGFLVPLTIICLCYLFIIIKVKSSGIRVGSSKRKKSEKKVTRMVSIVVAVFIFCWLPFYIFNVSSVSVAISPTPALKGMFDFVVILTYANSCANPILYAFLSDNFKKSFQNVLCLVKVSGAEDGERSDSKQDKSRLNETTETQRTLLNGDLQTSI

With CC(C)[C@@H]1NC(=O)[C@H](CCCCN)NC(=O)[C@@H](Cc2c[nH]c3ccccc23)NC(=O)[C@H](Cc2ccc(O)cc2)NC(=O)[C@@H](NC(=O)[C@H](N)Cc2ccccc2)CSSC[C@@H](C(=O)N[C@@H](Cc2c[nH]c3ccccc23)C(N)=O)NC1=O [RC-160] (H-[dF]CY[dW]KVCW-NH2; disulfide 2-7) the “Displacement of radiolabelled somatostatin from AR42J membranes” value ([1]; unlabelled RC-160 10-6 to 10-11 M, 50 mM Tris, 0.2% BSA, filtration) was 95% and the IC50 ([1]; competition, AR42J membranes, non-linear regression) was 0.631 nM.

With C[C@H](N)C(=O)NCC(=O)N[C@H]1CSSC[C@@H](C(=O)O)NC(=O)[C@H](CO)NC(=O)[C@H]([C@@H](C)O)NC(=O)[C@H](Cc2ccc(O)c(I)c2)NC(=O)[C@H]([C@@H](C)O)NC(=O)[C@H](CCCCN)NC(=O)[C@H](Cc2c[nH]c3ccccc23)NC(=O)[C@H](Cc2ccccc2)NC(=O)[C@H](Cc2ccccc2)NC(=O)[C@H](CC(N)=O)NC(=O)[C@H](CCCCN)NC1=O [125I-Tyr11 somatostatin] (H-AGCKNFFWKT[Tyr(3-I)]TSC-OH; disulfide 3-14 (inferred); N-terminus and C-terminus assumed) the “Displaceable binding, Panc-1” value [2] was “not displaceable binding was observed”, the “Displaceable binding, MiaPaCa-2” value [3] was “not displaceable binding was observed” and the Bmax [4] was 2.1 +/- 0.26 pmoles mg-1 protein.

For insulin-like growth factor 1 [IGF-1], the “Stimulation of growth of MiaPaCa-2” value ([5]; 48 h) was “increased the proliferation of the two cell lines (P<0.01 compared to untreated cells)” and the “Stimulation of growth of Panc-1” value [6] was “increased the proliferation of the two cell lines (P<0.01 compared to untreated cells)”.

For “epidermal growth factor [EGF, epidermal growth factor (Sigma, Dorset)]”, the “Stimulation of growth of MiaPaCa-2” value ([5]; 48 h) was “stimulated the growth of both cell lines (P<0.01 compared to untreated cells), having a more pronounced effect on MiaPaCa-2” and the “Stimulation of growth of Panc-1” value [6] was “stimulated the growth of both cell lines (P<0.01 compared to untreated cells)”.

For “SS-14: Somatostatin (SS) is a tetradecapeptide; SS-14 from Sigma, Dorset”, the “Effect on DNA synthesis in EGF stimulated MiaPaCa-2 cells” value ([5]; EGF 10^-8 M, serum free DMEM, 48 h at 37 C, 3H-thymidine for final 6 h, P>0.05 compared to stimulated cells) was “neither SS-14 nor RC-160 had any effect on DNA synthesis”, the “Effect on DNA synthesis in IGF-1 stimulated MiaPaCa-2 cells” value ([5]; IGF-1 10^-8 M, serum free, 48 h, 3H-thymidine for final 6 h, P>0.05 compared to stimulated cells) was “neither SS-14 nor RC-160 had any effect on DNA synthesis” and the “Effect on DNA synthesis in EGF stimulated Panc-1 cells” value ([6]; EGF 10^-8 M, serum free, 3H-thymidine for final 6 h, P>0.05 compared to stimulated cells) was “neither SS-14 nor RC-160 had any effect on DNA synthesis”. The “Effect on DNA synthesis in IGF-1 stimulated Panc-1 cells” value ([6]; IGF-1 10^-8 M, serum free, 3H-thymidine for final 6 h, P>0.05 compared to stimulated cells) was “neither SS-14 nor RC-160 had any effect on DNA synthesis”, the “Inhibition of EGF-stimulated growth of MiaPaCa-2” value (MiaPaCa-2; in vitro, ref Liebow et al. (1986; 1989)) was “all inhibit the EGF- stimulated growth of MiaPaCa-2” and the “Growth inhibitory effect, MiaPaCa-2” value (MiaPaCa-2; unstimulated cells, serum-free medium, one concentration, ref Liehr et al., 1990) was “no growth inhibitory effect”. For the same compound, the “Specific somatostatin receptors in fresh human pancreatic adenocarcinomas” value [7] was “none of which contained specific somatostatin receptors”, the “Bmax, MiaPaCa-2” value [8] was 3.6 fmole mg-' protein and the “Inhibition of rat experimental pancreatic cancer growth” value [9] was “inhibition of both rat and hamster experimental pancreatic cancer growth”. For the same compound, the “Inhibition of pancreatic exocrine secretion” value [10] was “inhibits the pancreatic exocrine secretion of protein and bicarbonate”, the “Inhibition of hamster experimental pancreatic cancer growth” value [11] was “inhibition of both rat and hamster experimental pancreatic cancer growth” and the “Inhibition of endocrine secretion of cholecystokinin, gastrin and secretin” value [12] was “inhibits the pancreatic exocrine secretion of protein and bicarbonate (Boden et al., 1975) and the endocrine secretion of cholecystokinin, gastrin and secretin”. For the same compound, the “Specific binding sites in human pancreatic cancer xenograft” value [13] was “one of these xenografts expressed specific binding sites”, the “Dephosphorylation of the EGF receptor” value (EGF receptor) was “causes the dephosphorylation of the EGF receptor” and the “Promotion of tyrosine phosphatase activity” value [14] was “promotion of tyrosine phosphatase activity”. The “Growth inhibitory effect, Panc-1” value (Panc-1) was “no growth inhibitory effect”.
